On the set-up of series [1]: method as in PMID 12667689. The settings on record: PAMPA-BBB; cited from earlier work.
The next series has as its target T1, recombinant human MAO-A (Homo sapiens, UniProt P21397).
T1 construct: purchased Sigma-Aldrich (St. Louis, MO, USA)
T1 sequence (P21397 1-527): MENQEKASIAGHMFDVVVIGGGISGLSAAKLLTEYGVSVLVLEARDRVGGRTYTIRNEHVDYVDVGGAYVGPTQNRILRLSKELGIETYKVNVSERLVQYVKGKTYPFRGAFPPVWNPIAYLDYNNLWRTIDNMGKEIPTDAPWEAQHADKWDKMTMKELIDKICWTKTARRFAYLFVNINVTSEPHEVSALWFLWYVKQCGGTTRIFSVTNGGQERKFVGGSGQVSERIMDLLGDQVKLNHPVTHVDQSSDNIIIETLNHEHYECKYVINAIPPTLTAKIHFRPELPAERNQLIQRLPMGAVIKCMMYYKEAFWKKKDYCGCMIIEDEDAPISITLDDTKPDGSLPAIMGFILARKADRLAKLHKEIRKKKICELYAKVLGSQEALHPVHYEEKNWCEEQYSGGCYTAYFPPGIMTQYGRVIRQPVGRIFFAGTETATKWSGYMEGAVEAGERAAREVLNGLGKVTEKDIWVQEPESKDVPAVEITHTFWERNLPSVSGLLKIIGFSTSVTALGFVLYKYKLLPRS
Put plainly: MAO-A inhibition assay (kynuramine substrate) and kinetics. Format: biochemical. The settings on record: for remaining activity at 10 µM: 10 µM compound, read-out: Residual Activity at 10 µM (%) MAO-A; for IC50: reference compounds after preincubation for 30 min with enzymes; for Ki: Lineweaver–Burk and secondary plots; for Type of MAO-A inhibition: Lineweaver–Burk plots. From the text: (§1) The enzymes and chemicals were purchased from Sigma-Aldrich (St. Louis, MO, USA).

Series [2] has as its target T2, MAO-B (Homo sapiens, UniProt P27338).
T2 construct: purchased Sigma-Aldrich (St. Louis, MO, USA)
T2 sequence (P27338 1-520): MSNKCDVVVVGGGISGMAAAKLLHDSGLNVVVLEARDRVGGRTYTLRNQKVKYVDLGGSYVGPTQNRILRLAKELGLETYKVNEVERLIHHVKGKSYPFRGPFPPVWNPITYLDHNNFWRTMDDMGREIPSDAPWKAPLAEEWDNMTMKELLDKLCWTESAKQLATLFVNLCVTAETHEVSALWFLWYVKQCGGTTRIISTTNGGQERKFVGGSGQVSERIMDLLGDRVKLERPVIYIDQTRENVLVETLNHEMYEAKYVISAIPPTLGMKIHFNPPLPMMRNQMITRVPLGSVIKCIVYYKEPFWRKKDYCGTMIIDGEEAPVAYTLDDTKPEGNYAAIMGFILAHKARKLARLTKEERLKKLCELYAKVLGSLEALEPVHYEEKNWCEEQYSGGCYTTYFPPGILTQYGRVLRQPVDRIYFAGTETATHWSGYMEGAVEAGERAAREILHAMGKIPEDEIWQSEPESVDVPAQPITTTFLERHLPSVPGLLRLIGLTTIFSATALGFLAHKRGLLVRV
Put plainly: MAO-B inhibition assay (benzylamine substrate) and kinetics. The format is biochemical. The note with it: for remaining activity at 10 µM: 10 µM compound, read-out: Residual Activity at 10 µM (%) MAO-B; for IC50: reference compounds after preincubation for 30 min with enzymes; for Ki: Lineweaver–Burk and secondary plots; for Type of MAO-B inhibition: Lineweaver–Burk plots.
Source text: as §1

Another series concerns the target AChE (Electrophorus electricus, UniProt O42275). Put plainly: AChE inhibition. The format is biochemical. The note with it: 10 µM compound; read-out: Residual Activity at 10 µM (%) AChE.
Series [3] in a line: Parallel artificial membrane permeability assay (PAMPA), BBB. The note with it: for Papp: PAMPA. On the technique in general: The PAMPA barrier holds no transporters, so it reflects passive diffusion.
Source text: The CNS bioavailability of the molecules was confirmed by a parallel artificial membrane permeability assay (PAMPA) [40].
Series [4] concerns the target T2, MAO-B. Kind of series: Reversibility of MAO-B inhibition by dialysis. Format: biochemical. On the procedure:
Reversibilities of EH7 were analyzed using a dialysis method after preincubating with MAO-B for 30 min, as previously described. […] The relative activities for undialyzed (AU) and dialyzed (AD) samples were compared to determine the reversibility patterns.

A value given as a limit tells only on which side of the number the result lay.

Chain of AChE (O42275 24-633): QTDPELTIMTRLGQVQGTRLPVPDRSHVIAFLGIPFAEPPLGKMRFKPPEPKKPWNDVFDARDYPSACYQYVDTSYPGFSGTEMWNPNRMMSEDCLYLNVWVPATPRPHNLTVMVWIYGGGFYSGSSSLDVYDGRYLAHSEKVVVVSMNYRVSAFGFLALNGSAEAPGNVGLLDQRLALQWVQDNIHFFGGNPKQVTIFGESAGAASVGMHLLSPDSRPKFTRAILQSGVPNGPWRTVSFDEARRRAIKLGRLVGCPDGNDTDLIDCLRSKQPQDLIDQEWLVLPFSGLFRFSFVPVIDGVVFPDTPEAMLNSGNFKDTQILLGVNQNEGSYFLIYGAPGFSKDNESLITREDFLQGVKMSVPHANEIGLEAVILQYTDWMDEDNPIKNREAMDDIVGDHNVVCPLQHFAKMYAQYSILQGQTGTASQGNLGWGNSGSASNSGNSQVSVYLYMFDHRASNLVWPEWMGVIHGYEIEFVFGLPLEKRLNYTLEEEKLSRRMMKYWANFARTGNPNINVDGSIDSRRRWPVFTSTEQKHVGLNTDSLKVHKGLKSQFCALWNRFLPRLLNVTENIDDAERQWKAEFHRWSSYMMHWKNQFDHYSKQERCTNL

With `NCCc1ccc(O)c(O)c1` [Dopamine], in series [1], the “Bibliography Pe” value is 2e-07 cm/s.

For `CCOc1ccc(C2=NNC(c3ccccc3)C2)cc1` (stereo not shown) [EH1, 3-(4-ethoxyphenyl)-5-phenyl-4,5-dihydro-1H-pyrazole], at recombinant human MAO-A, the remaining activity at 10 µM stood at 99.1 ± 0.27% and the IC50 was above 40 µM. On MAO-B [2], the “SI (selectivity index)” value is given as above 7.43, the remaining activity at 10 µM was determined as 33.7 ± 0.96% and the IC50 is 5.38 ± 0.16 µM. The remaining activity at 10 µM at AChE came to 81 ± 6.21%. The Papp in series [3] came out at 10.3 ± 0.33 ×10⁻⁶ cm/s.

Regarding `CCOc1ccc(C2=NNC(c3ccc(Cl)cc3)C2)cc1` (stereo not shown) [EH6, 5-(4-chlorophenyl)-3-(4-ethoxyphenyl)-4,5-dihydro-1H-pyrazole], on recombinant human MAO-A, the remaining activity at 10 µM came to 68.1 ± 0.18%, the Ki was found to be 10.8 ± 1.03 µM, the “Type of MAO-A inhibition” value was “competitive inhibitor” and the IC50 stood at 22.3 ± 0.12 µM. Also, at MAO-B [2], the remaining activity at 10 µM amounted to 19.4 ± 1.01%, the Ki turned out to be 190 ± 16 nM, the “Type of MAO-B inhibition” value is reported as “competitive inhibitor” and the IC50 was 0.4 ± 0.051 µM. Moreover, on AChE, the remaining activity at 10 µM amounted to 63.5 ± 4.99%. In series [3], this compound showed a Papp of 14.3 ± 0.8 ×10⁻⁶ cm/s.

Consider `CCOc1ccc(C2=NNC(c3ccc(F)cc3)C2)cc1` (stereo not shown) [EH7, 3-(4-ethoxyphenyl)-5-(4-fluorophenyl)-4,5-dihydro-1H-pyrazole], for which, on recombinant human MAO-A, the remaining activity at 10 µM came to 46.9 ± 1.25%, the Ki was found to be 3.64 ± 0.18 µM, the “Type of MAO-A inhibition” value is “competitive inhibitor” and the IC50 was found to be 8.38 ± 0.88 µM. At MAO-B [2], the “SI (selectivity index)” value worked out at 133.0, the remaining activity at 10 µM was 4.03 ± 0.53%, the affinity corresponds to a Ki of 34 ± 6.7 nM and the “Type of MAO-B inhibition” value is listed as “competitive inhibitor”. Also, the midpoint of inhibition against MAO-B [2], the IC50, lay at 0.063 ± 0.0042 µM. In addition, the remaining activity at 10 µM at AChE was 74 ± 0.71%. Also, at MAO-B [4] (EH7 0.15 µM, lazabemide 0.20 µM, pargyline 0.30 µM, 30 min preincubation), the “Relative activity of undialyzed sample (AU)” value stood at 12.5%. Also, on MAO-B [4] (EH7 0.15 µM, lazabemide 0.20 µM, pargyline 0.30 µM, 30 min preincubation, dialysis), the “Relative activity of dialyzed sample (AD)” value is listed as 89.5%. For the same compound, on MAO-B [4] (dialysis), the “Reversibility of MAO-B inhibition” value is “reversible inhibitor”. In series [3], this compound yielded a Papp of 14.1 ± 0.71 ×10⁻⁶ cm/s.

For the compound `CCOc1ccc(C2=NNC(c3ccc(Br)cc3)C2)cc1` (stereo not shown) [EH8, 5-(4-bromophenyl)-3-(4-ethoxyphenyl)-4,5-dihydro-1H-pyrazole], at recombinant human MAO-A, the remaining activity at 10 µM worked out at 33.5 ± 0.65% and the IC50 turned out to be 4.31 ± 0.013 µM. Also, on MAO-B [2], the “SI (selectivity index)” value stood at 6.3, the remaining activity at 10 µM worked out at 11.3 ± 0.13% and 0.69 ± 0.017 µM corresponded to half-maximal inhibition (IC50). The remaining activity at 10 µM at AChE turned out to be 53.7 ± 2.15%. The same compound returned a Papp in series [3] of 14.6 ± 0.26 ×10⁻⁶ cm/s.

For `CN1C(C(=O)Nc2ccccn2)=C(O)c2ccccc2S1(=O)=O` [Piroxicam, reference compound], the “Bibliography Pe” value in series [1] is 2.5e-06 cm/s. Moreover, the apparent permeability (Papp) in series [3] is 2.43 ± 0.3 ×10⁻⁶ cm/s. Besides, the “Prediction (CNS permeability)” value in series [3] (PAMPA-BBB) was “CNS+/−”.

For the compound `CC(=O)[C@H]1CC[C@H]2[C@@H]3CCC4=CC(=O)CC[C@]4(C)[C@H]3CC[C@]12C` [Progesterone, reference compound], the “Experimental Pe” value in series [3] (PAMPA-BBB) was 9.02 ± 0.11 ×10^−6 cm/s.

As a reminder, the IC50 is the point on the concentration scale where inhibition reaches its midpoint. As a reminder, the Papp is a coefficient for how fast a substance crosses the barrier. What is called Ki is a dissociation constant, usually derived from enzyme kinetics or from competition with a known ligand.

Source of the values: PMC8198649, “Development of Halogenated Pyrazolines as Selective Monoamine Oxidase-B Inhibitors: Deciphering via Molecular Dynamics Approach” (Molecules, 2021).
